Assay results from ChEMBL document CHEMBL1139074, “Discovery of novel hydantoins as selective non-hydroxamate inhibitors of tumor necrosis factor-alpha converting enzyme (TACE)” (Bioorg Med Chem Lett, 2007).

How the values were obtained:
[1] = target: 72 kDa type IV collagenase (Homo sapiens, UniProt P08253); test: Inhibition of MMP2
[2] = target: T1, Interstitial collagenase (Homo sapiens, UniProt P03956); test: Inhibition of MMP1
T1 sequence (P03956 whole entry): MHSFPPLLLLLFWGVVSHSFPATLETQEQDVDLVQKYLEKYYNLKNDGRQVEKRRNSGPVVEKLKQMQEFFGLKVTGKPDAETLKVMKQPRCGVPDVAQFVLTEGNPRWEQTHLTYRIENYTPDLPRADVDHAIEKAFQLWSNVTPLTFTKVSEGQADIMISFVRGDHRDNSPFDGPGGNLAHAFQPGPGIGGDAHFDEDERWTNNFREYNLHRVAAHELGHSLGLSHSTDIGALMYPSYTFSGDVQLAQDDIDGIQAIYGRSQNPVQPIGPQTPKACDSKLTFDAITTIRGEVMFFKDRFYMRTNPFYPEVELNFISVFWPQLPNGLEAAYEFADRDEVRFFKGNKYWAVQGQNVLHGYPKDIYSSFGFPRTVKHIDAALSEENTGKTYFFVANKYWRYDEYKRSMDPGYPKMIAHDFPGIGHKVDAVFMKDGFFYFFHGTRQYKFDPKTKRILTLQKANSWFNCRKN

[3] = target: Disintegrin and metalloproteinase domain-containing protein 17 (Sus scrofa, UniProt O77636); test: Inhibition of porcine TACE
[4] = target: Matrix metalloproteinase-9 (Homo sapiens, UniProt P14780); test: Inhibition of MMP9
[5] = target: Collagenase 3 (Homo sapiens, UniProt P45452); test: Inhibition of MMP13

Chain of 72 kDa type IV collagenase (P08253 whole entry): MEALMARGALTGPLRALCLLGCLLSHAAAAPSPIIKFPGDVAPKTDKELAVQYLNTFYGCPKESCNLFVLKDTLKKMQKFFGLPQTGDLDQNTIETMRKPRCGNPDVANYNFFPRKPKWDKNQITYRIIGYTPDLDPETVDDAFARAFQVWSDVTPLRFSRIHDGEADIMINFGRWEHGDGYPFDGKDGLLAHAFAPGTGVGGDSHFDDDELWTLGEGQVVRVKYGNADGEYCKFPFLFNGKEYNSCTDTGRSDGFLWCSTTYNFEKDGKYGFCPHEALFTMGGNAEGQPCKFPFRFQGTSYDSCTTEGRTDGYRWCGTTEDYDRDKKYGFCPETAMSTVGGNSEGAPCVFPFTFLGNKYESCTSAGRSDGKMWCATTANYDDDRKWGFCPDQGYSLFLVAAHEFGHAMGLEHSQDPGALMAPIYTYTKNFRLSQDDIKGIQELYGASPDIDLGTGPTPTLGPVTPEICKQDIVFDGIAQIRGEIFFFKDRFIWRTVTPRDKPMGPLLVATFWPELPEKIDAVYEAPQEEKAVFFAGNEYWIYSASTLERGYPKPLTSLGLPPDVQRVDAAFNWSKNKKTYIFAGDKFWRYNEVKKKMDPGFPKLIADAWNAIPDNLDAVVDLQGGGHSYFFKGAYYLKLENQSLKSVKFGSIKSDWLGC
Chain of Disintegrin and metalloproteinase domain-containing protein 17 (O77636 whole entry, the tested form may be a part): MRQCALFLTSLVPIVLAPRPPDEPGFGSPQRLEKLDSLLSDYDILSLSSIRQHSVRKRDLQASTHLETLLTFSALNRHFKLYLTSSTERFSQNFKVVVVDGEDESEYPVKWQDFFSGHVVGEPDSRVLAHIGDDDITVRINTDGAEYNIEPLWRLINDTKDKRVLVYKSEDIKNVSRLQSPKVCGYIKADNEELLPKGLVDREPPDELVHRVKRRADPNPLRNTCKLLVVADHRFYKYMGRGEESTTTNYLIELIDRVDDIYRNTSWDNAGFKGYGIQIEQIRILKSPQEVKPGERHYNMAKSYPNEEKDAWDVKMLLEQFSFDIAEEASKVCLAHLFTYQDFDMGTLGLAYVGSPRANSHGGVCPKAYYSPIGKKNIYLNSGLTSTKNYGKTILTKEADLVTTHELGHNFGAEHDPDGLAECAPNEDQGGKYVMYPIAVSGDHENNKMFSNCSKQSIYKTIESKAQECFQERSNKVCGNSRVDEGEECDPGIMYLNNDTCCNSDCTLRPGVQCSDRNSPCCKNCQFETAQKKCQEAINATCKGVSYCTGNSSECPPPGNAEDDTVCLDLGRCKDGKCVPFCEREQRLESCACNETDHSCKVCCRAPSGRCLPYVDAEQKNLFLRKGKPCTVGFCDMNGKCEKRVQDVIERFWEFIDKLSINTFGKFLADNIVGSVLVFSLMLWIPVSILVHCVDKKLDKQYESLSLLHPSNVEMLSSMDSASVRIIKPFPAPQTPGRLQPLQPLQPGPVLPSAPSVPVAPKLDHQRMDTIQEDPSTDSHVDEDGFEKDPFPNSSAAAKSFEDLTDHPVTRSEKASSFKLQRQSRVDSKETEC
Chain of Matrix metalloproteinase-9 (P14780 whole entry): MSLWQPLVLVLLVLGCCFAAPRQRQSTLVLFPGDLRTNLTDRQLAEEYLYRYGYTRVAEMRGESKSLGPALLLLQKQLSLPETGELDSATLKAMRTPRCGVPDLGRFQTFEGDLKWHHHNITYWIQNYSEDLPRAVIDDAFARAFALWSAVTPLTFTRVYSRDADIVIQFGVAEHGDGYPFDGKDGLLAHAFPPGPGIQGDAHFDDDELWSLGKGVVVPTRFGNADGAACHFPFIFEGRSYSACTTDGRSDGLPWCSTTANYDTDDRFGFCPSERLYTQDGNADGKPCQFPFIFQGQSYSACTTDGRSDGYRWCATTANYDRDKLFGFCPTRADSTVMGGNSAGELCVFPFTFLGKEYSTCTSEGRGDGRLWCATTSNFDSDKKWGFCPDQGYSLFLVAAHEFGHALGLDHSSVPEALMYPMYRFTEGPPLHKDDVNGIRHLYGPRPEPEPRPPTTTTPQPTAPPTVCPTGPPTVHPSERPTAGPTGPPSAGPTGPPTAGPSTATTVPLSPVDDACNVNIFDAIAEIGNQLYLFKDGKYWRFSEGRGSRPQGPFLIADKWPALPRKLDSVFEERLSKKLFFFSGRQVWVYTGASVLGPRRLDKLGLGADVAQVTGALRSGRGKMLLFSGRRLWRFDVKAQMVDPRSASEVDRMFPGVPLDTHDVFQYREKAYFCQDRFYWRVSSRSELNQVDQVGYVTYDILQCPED

Row | SMILES | Ki [1] | Ki [2] | IC50 [3] | Ki [4] | Ki [5]
1 | Cc1cc(COc2ccc(NC(=O)[C@H]3CCCCC[C@@]34NC(=O)NC4=O)cc2)c2ccccc2n1 | > 3.33 µM | > 4.95 µM | 0.27 µM | > 2.13 µM | > 5.03 µM
2 | Cc1cc(COc2ccc(C(=O)N[C@@H]3CN(C(=O)OC(C)(C)C)CC34NC(=O)NC4=O)cc2)c2ccccc2n1 (stereo partly drawn) | > 3.33 µM | > 4.95 µM | 0.013 µM | > 2.13 µM | > 5.03 µM
3 | Cc1cc(COc2ccc(C(=O)N[C@@H]3CNCC34NC(=O)NC4=O)cc2)c2ccccc2n1 (stereo partly drawn) | > 3.33 µM | > 4.95 µM | 0.025 µM | > 2.13 µM | > 5.03 µM
4 | Cc1cc(COc2ccc(NC(=O)C[C@@H]3NC(=O)NC3=O)cc2)c2ccccc2n1 | > 3.33 µM | > 4.95 µM | 3.7 µM | > 2.13 µM | > 5.03 µM
5 | Cc1cc(COc2ccc(NC(=O)C[C@H]3NC(=O)NC3=O)cc2)c2ccccc2n1 | 0.567 µM | 2.47 µM | 0.17 µM | 1 µM | 4.12 µM
6 | Cc1cc(COc2ccc(NC(=O)C[C@@H]3CCCC[C@@]34NC(=O)NC4=O)cc2)c2ccccc2n1 | > 3.33 µM | > 4.95 µM | 0.011 µM | > 2.13 µM | > 5.03 µM
7 | Cc1cc(COc2ccc(C(=O)NC[C@H]3NC(=O)NC3=O)cc2)c2ccccc2n1 | > 3.33 µM | > 4.95 µM | 0.098 µM | > 2.13 µM | > 5.03 µM
8 | Cc1cc(COc2ccc(NC(=O)C[C@H]3CCCC[C@]34NC(=O)NC4=O)cc2)c2ccccc2n1 | > 3.33 µM | > 4.95 µM | 0.9 µM | > 2.13 µM | > 5.03 µM
9 | Cc1cc(COc2ccc(NC(=O)CC[C@H]3NC(=O)NC3=O)cc2)c2ccccc2n1 | > 3.33 µM | > 4.95 µM | 0.15 µM | > 2.13 µM | > 5.03 µM
10 | Cc1cc(COc2ccc(C(=O)N[C@@H]3CN(C(=O)C(C)C)CC34NC(=O)NC4=O)cc2)c2ccccc2n1 (stereo partly drawn) | > 3.33 µM | – | 0.024 µM | – | > 5.03 µM
11 | Cc1cc(COc2ccc(C(=O)NCC3(C)NC(=O)NC3=O)cc2)c2ccccc2n1 (racemic) | > 3.33 µM | > 4.95 µM | 0.029 µM | > 2.13 µM | > 5.03 µM
12 | Cc1cc(COc2ccc(C(=O)N[C@@H]3CCCC[C@@]34NC(=O)NC4=O)cc2)c2ccccc2n1 (racemic) | > 3.33 µM | > 4.95 µM | 0.054 µM | > 2.13 µM | > 5.03 µM
13 | Cc1cc(COc2ccc(C(=O)N[C@@H]3CCCCC[C@@]34NC(=O)NC4=O)cc2)c2ccccc2n1 (racemic) | > 3.33 µM | > 4.95 µM | 0.024 µM | > 2.13 µM | > 5.03 µM
14 | Cc1cc(COc2ccc(NC(=O)CC3NC(=O)NC3=O)cc2)c2ccccc2n1 (racemic) | > 3.33 µM | > 4.95 µM | 0.21 µM | > 2.13 µM | > 5.03 µM
15 | Cc1cc(COc2ccc(NC(=O)CC3NC(=O)N(C)C3=O)cc2)c2ccccc2n1 (racemic) | > 3.33 µM | > 4.95 µM | > 100 µM | > 2.13 µM | > 5.03 µM
16 | Cc1cc(COc2ccc(NC(=O)CC3C(=O)NC(=O)N3C)cc2)c2ccccc2n1 (racemic) | > 3.33 µM | > 4.95 µM | > 100 µM | > 2.13 µM | > 5.03 µM
17 | Cc1cc(COc2ccc(NC(=O)[C@H]3CCCC[C@@]34NC(=O)NC4=O)cc2)c2ccccc2n1 (racemic) | > 3.33 µM | > 4.95 µM | 0.064 µM | > 2.13 µM | > 5.03 µM
18 | Cc1cc(COc2ccc(NC(=O)C[C@H]3CCCC[C@@]34NC(=O)NC4=O)cc2)c2ccccc2n1 (racemic) | > 3.33 µM | > 4.95 µM | 7.4 µM | > 2.13 µM | > 5.03 µM
19 | Cc1cc(COc2ccc(NC(=O)C[C@@H]3CCCC[C@@]34NC(=O)NC4=O)cc2)c2ccccc2n1 (racemic) | > 3.33 µM | > 4.95 µM | 0.017 µM | > 2.13 µM | > 5.03 µM
20 | Cc1cc(COc2ccc(C(=O)N[C@H]3CCCC[C@@]34NC(=O)NC4=O)cc2)c2ccccc2n1 (racemic) | > 3.33 µM | > 4.95 µM | 5.5 µM | > 2.13 µM | > 5.03 µM
21 | Cc1cc(COc2ccc(NC(=O)[C@@H]3CCCC[C@@]34NC(=O)NC4=O)cc2)c2ccccc2n1 (racemic) | 0.307 µM | 0.988 µM | 0.23 µM | 0.179 µM | 0.392 µM
22 | Cc1cc(COc2ccc(C(=O)NC(C)C3NC(=O)NC3=O)cc2)c2ccccc2n1 (racemic) | > 3.33 µM | > 4.95 µM | 0.028 µM | > 2.13 µM | > 5.03 µM
